According to ChEMBL document CHEMBL3706496, “Therapeutic Drugs” (1999):
Blank lines part the entries; values can stand above or below the compound they belong to.

Columns and labels:
Assay type in all cases: ADME, organism-based
[1] = Percentage of administered dose recovered as monocarboxylic acid derivative of mitoxantrone in urine within 48 h of drug administration; parameters: dosed compound id 2.58283e+06, dosed compound name Mitoxantrone; settings: human, in vivo
[2] = Percentage of administered dose recovered as dicarboxylic acid derivative of mitoxantrone in urine within 48 h of drug administration; settings: human, in vivo
[3] = Percentage of administered dose recovered as idarubicinol in urine after intravenous administration; parameters: dosed compound id 2.58283e+06, dosed compound name Idarubicin, route intravenous; settings: human, in vivo
[4] = Percentage of administered dose recovered as idarubicinol in urine after oral administration; parameters: dosed compound id 2.58283e+06, dosed compound name Idarubicin, route oral; settings: human, in vivo
[5] = Percentage of administered dose recovered as unchanged drug in urine after oral administration; parameters: dosed compound id 2.58283e+06, dosed compound name Idarubicin, route oral; settings: human, read-out: Compound recovery
[6] = Percentage of administered dose recovered as unchanged drug in urine after intravenous administration; parameters: dosed compound id 2.58283e+06, dosed compound name Idarubicin, route intravenous; settings: human, read-out: Compound recovery
[7] = Percentage of administered dose recovered as unchanged drug in urine within 48 h of drug administration; parameters: dosed compound id 2.58283e+06, dosed compound name Mitoxantrone; settings: human, read-out: Compound recovery

Structure (SMILES): O=C(O)CNCCNc1ccc(NCCNCCO)c2c1C(=O)c1c(O)ccc(O)c1C2=O
Compound recovery [1]: 0.5%

Structure (SMILES): O=C(O)CNCCNc1ccc(NCCNCC(=O)O)c2c1C(=O)c1c(O)ccc(O)c1C2=O
Compound recovery [2]: 0.3%

Compound recovery [3]: 15%
Compound recovery [4]: 5%
Structure (SMILES): CC(O)[C@]1(O)Cc2c(O)c3c(c(O)c2[C@@H](O[C@H]2C[C@H](N)[C@H](O)[C@H](C)O2)C1)C(=O)c1ccccc1C3=O (some centres not stated)

dose excreted [5]: 0.6%
dose excreted [6]: 2%
Structure (SMILES): CC(=O)[C@]1(O)Cc2c(O)c3c(c(O)c2[C@@H](O[C@H]2C[C@H](N)[C@H](O)[C@H](C)O2)C1)C(=O)c1ccccc1C3=O [IDARUBICIN]

Structure (SMILES): O=C1c2c(O)ccc(O)c2C(=O)c2c(NCCNCCO)ccc(NCCNCCO)c21 [MITOXANTRONE]
dose excreted at 48 h [7]: 4.4%
